Measured values taken from patent US20230257354A1, “NOVEL HETEROCYCLIC COMPOUNDS” (Hoffmann-La Roche Inc., priority 2020, published 2023).

Columns and labels:
[1] = system: Acinetobacter baumannii ATCC17978; experiment: Antimicrobial susceptibility testing, 90% growth inhibitory concentration (IC90) determination, ATCC17978; assay type: cell-based; details: Iso-Sensitest broth, OD 600 nm over 16 h, 35±2° C., read-out: ATCC 17978 IC90
How it was run: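 Serial twofold dilutions (e.g. 50 to 0.097 μM final) in Iso-Sensitest broth, inoculum ~5×10^(5) CFU/ml, incubated 35±2 °C for 16 h. OD600 read every 20 min; growth inhibition calculated during logarithmic growth to derive the concentration inhibiting 90% of growth, in μM.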

[2] = system: Acinetobacter baumannii ATCC17961; experiment: Antimicrobial susceptibility testing, 90% growth inhibitory concentration (IC90) determination, ATCC17961; assay type: cell-based; details: Iso-Sensitest broth, OD 600 nm over 16 h, 35±2° C., read-out: ATCC 17961 IC90
Method: Antimicrobial Susceptibility Testing: 90% Growth Inhibitory Concentration (IC90) Determination The in vitro antimicrobial activity of the compounds was determined according to the following procedure: The assay used a 10-points Iso-Sensitest broth medium to measure quantitatively the in vitro activity of the compounds against Acinetobacter baumannii ATCC17978 or ATCC17961. Stock compounds in DMSO were serially twofold diluted (e.g. range from 50 to 0.097 μM final concentration) in 384 wells microtiter plates and inoculated with 49 μl the bacterial suspension in Iso-Sensitest medium to have a final cell concentration of ˜5×10^(5) CFU/ml in a final volume/well of 50 ul/well. Microtiter plates were incubated at 35±2° C. Bacterial cell growth was determined with the measurement of optical density at X=600 nm each 20 minutes over a time course of 16 h. Growth inhibition was calculated during the logarithmic growth of the bacterial cells with determination of the concentration inhibiting 50% (IC50) and 90% (IC90) of the growth. Table 2 provides the 90% growth inhibitory concentrations (IC90) in micromoles per liter of the compounds of present invention obtained against the strain Acinetobacter baumannii ATCC17961.

Row | IC90 [1] [nM] | IC90 [2] [nM] | Compound
1 | 73 |  | COc1ccc(-c2cnc(C(=O)Nc3ccc(C(=O)N[C@H]4C[C@@H](NC(=O)[C@H]5CCNC[C@H]5O)C4)c(Cl)c3)n2C)c(F)c1F [Example B42, (3S,4S)-N-[3-[[2-chloro-4-[[5-(2,3-difluoro-4-methoxy-phenyl)-1-methyl-imidazole-2-carbonyl]amino]benzoyl]amino]cyclobutyl]-3-hydroxy-piperidine-4-carboxamide;formic acid]
2 |  | 139 | COc1ccc(-c2cnc(C(=O)Nc3ccc(C(=O)N[C@H]4[C@@H]5CN(C(=O)[C@@H]6C[C@@H](O)CN6)C[C@@H]54)c(Cl)c3)n2C)c(F)c1F [Example B43, N-[3-chloro-4-[[(exo)-3-[(2S,4R)-4-hydroxyprolyl]-3-azabicyclo[3.1.0]hexan-6-yl]carbamoyl]phenyl]-5-(2,3-difluoro-4-methoxy-phenyl)-1-methyl-imidazole-2-carboxamide; 1:1 hydrogen chloride]
3 |  | 155 | COc1ccc(-c2cnc(C(=O)Nc3ccc(C(=O)N[C@H]4[C@@H]5CN(C(=O)N[C@@H]6CNC[C@H]6O)C[C@@H]54)c(Cl)c3)n2C)c(F)c1F [Example B44, (exo)-6-[[2-chloro-4-[[5-(2,3-difluoro-4-methoxy-phenyl)-1-methyl-imidazole-2-carbonyl]amino]benzoyl]amino]-N-[(trans)-4-hydroxypyrrolidin-3-yl]-3-azabicyclo[3.1.0]hexane-3-carboxamide; 1:1 hydrogen chloride]
4 | 830 |  | Cn1c(-c2ccc(OC(F)F)c(F)c2F)cnc1C(=O)Nc1ccc(C(=O)NCCC2CN(CC3CNC3)C2)c(Cl)c1 [Example C1, N-[4-[2-[1-(Azetidin-3-ylmethyl)azetidin-3-yl]ethylcarbamoyl]-3-chloro-phenyl]-5-[4-(difluoromethoxy)-2,3-difluoro-phenyl]-1-methyl-imidazole-2-carboxamide;2,2,2-trifluoroacetic acid]
5 | 370 |  | CCc1cc(NC(=O)c2ncc(-c3ccc(OC(F)F)c(F)c3F)n2C)ccc1C(=O)NCCCNC(=O)C1CCN(CC2CCNC2)CC1 (centres unmarked) [Example C2, N-[3-[[4-[[5-[4-(difluoromethoxy)-2,3-difluoro-phenyl]-1-methyl-imidazole-2-carbonyl]amino]-2-ethyl-benzoyl]amino]propyl]-1-(pyrrolidin-3-ylmethyl)piperidine-4-carboxamide;formic acid]
6 | 450 |  | CCc1cc(NC(=O)c2ncc(-c3ccc(OC(F)F)c(F)c3F)n2C)ccc1C(=O)NCCCNC(=O)C1CCN(CC2CNC2)CC1 [Example C3, 1-(azetidin-3-ylmethyl)-N-[3-[[4-[[5-[4-(difluoromethoxy)-2,3-difluoro-phenyl]-1-methyl-imidazole-2-carbonyl]amino]-2-ethyl-benzoyl]amino]propyl]piperidine-4-carboxamide;formic acid]
7 | 750 |  | COc1ccc(-c2cnc(C(=O)Nc3ccc(C(=O)NCC4CCN(CC5CNC5)CC4)c(Cl)c3)n2C)c(F)c1F [Example C4, N-[4-[[1-(azetidin-3-ylmethyl)-4-piperidyl]methylcarbamoyl]-3-chloro-phenyl]-5-(2,3-difluoro-4-methoxy-phenyl)-1-methyl-imidazole-2-carboxamide;2,2,2-trifluoroacetic acid]
8 | 3200 |  | CNC(=O)c1ccc(NC(=O)c2ncc(-c3ccc(OC)cc3)n2C)cc1C [Example D1, 5-(4-Methoxyphenyl)-1-methyl-N-[3-methyl-4-(methylcarbamoyl)phenyl]imidazole-2-carboxamide]
